According to EPA's ToxValDB 9.5 (doi:10.2903/j.efsa.2013.3052):

Legend:
Anas platyrhynchos = conditions: short-term; oral; feed; mortality
Apis mellifera = conditions: acute, duration: 48 hours, mortality
Bibionidae = conditions: chronic/long-term; duration: 28 days; other
Cyprinodon variegatus = conditions: acute; duration: 96 hours; mortality
Daphnia magna = conditions: chronic/long-term; duration: 21 days; reproduction
Folsomia candida = conditions: chronic/long-term; duration: 28 days; reproduction
Hypoaspis aculeifer = conditions: chronic/long-term; duration: 14 days; reproduction
Mus musculus = conditions: subchronic; duration: 90 days; oral; diet; organ weight
Neomysis kadiakensis = conditions: acute; duration: 96 hours; mortality
Pimephales promelas = conditions: chronic/long-term; duration: 33 days; behavior

O=C(NCCc1ncc(C(F)(F)F)cc1Cl)c1ccccc1C(F)(F)F [Fluopyram]
LC50 (Anas platyrhynchos): > 1640 mg/kg-day
LD50 (Apis mellifera; dermal): > 100 µg/piece
LD50 (Apis mellifera; oral, unspecified): > 102 µg/piece
NOEC (Bibionidae): 1.39 mg/L
LD50 (Colinus virginianus; acute, oral, mortality): > 2000 mg/kg-day
NOAEL (Colinus virginianus; reproduction developmental): 7.2 mg/kg-day
LC50 (Cyprinodon variegatus): > 0.98 µg/mL
NOEC (Daphnia magna): 1.25 mg/L
NOEC (Folsomia candida): 104 mg/kg
NOEC (Hypoaspis aculeifer): > 415 mg/kg
NOAEL (Mus musculus): 5.4 mg/kg-day
LC50 (Neomysis kadiakensis): > 0.5 µg/mL
NOEC (Pimephales promelas): 0.135 mg/L
NOAEL (Rattus norvegicus; acute, F, neurology): 50 mg/kg-day
LD50 (Rattus norvegicus; acute, oral, mortality): > 2000 mg/kg-day
NOAEL (Rattus norvegicus; chronic): 14.5 mg/kg-day
NOAEL (Rattus norvegicus; chronic, duration: 2 years, oral, diet, body weight): 1.2 mg/kg-day
LC50 (Tagia sp.; acute, duration: 14 days, mortality): > 1000 mg/kg
NOEC (Tagia sp.; chronic/long-term, duration: 56 days, reproduction): 11.4 mg/kg
